# Assay results: PubChem BioAssay AID2060325 (Molecular Pharmacology Branch, DTP, NCI, 2025)
# Test system: SK-OV-3 multi-cell spheroids, viability
# Experiment: Anticancer human tumor SK-OV-3 cell line growth inhibition [IpAb];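 as to viability, T/C: viability read after seven days of drug exposure; percent of DMSO vehicle control luminescence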
# Settings: for IC50: curve of first compound; for viability, T/C: stronger effect = lower value
# How it was run: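 Spheroids of 60% malignant cells, 25% HUVEC and 15% MSC were exposed to targeted agents combined with ipatasertib or abemaciclib. Doses started at or near clinical Cmax (10 microM when unknown) and fell in half-log steps.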
# [1] = second compound 0.01 µM, first compound 0.0316 µM
# [2] = second compound 0.01 µM, first compound 0.1 µM
# [3] = second compound 0.0316 µM, first compound 0.0316 µM
# [4] = second compound 0.0316 µM, first compound 0.1 µM
# [5] = second compound 0.1 µM, first compound 0.0316 µM
# [6] = second compound 0.1 µM, first compound 0.1 µM
# [7] = second compound 0.316 µM, first compound 0.0316 µM
# [8] = second compound 0.316 µM, first compound 0.1 µM
# [9] = second compound 1 µM, first compound 0.0316 µM
# [10] = second compound 1 µM, first compound 0.1 µM
smiles,measurement,setting,value
C=CCn1c(=O)c2cnc(Nc3ccc(N4CCN(C)CC4)cc3)nc2n1-c1cccc(C(C)(C)O)n1 + CCN1CCN(Cc2ccc(Nc3ncc(F)c(-c4cc(F)c5nc(C)n(C(C)C)c5c4)n3)nc2)CC1,IC50,second compound 0.01 µM,90 nM
same,IC50,second compound 0.0316 µM,55.9 nM
same,IC50,second compound 0.1 µM,< 31.6 nM
same,IC50,second compound 0.316 µM,39.3 nM
same,IC50,second compound 1 µM,< 31.6 nM
same,"viability, T/C",[1],83.9%
same,"viability, T/C",[2],46.6%
same,"viability, T/C","second compound 0.01 µM, first compound 0.316 µM",13.1%
same,"viability, T/C","second compound 0.01 µM, first compound 1 µM",7.77%
same,"viability, T/C","second compound 0.01 µM, first compound 3.16 µM",4.03%
same,"viability, T/C","second compound 0.01 µM, first compound 10 µM",6.24%
same,"viability, T/C",[3],63.7%
same,"viability, T/C",[4],36%
same,"viability, T/C","second compound 0.0316 µM, first compound 0.316 µM",12.1%
same,"viability, T/C","second compound 0.0316 µM, first compound 1 µM",8.26%
same,"viability, T/C","second compound 0.0316 µM, first compound 3.16 µM",6.84%
same,"viability, T/C","second compound 0.0316 µM, first compound 10 µM",6.66%
same,"viability, T/C",[5],49.2%
same,"viability, T/C",[6],36.3%
same,"viability, T/C","second compound 0.1 µM, first compound 0.316 µM",14.4%
same,"viability, T/C","second compound 0.1 µM, first compound 1 µM",9.93%
same,"viability, T/C","second compound 0.1 µM, first compound 3.16 µM",5.86%
same,"viability, T/C","second compound 0.1 µM, first compound 10 µM",8.17%
same,"viability, T/C",[7],53.5%
same,"viability, T/C",[8],34.8%
same,"viability, T/C","second compound 0.316 µM, first compound 0.316 µM",17.9%
same,"viability, T/C","second compound 0.316 µM, first compound 1 µM",15%
same,"viability, T/C","second compound 0.316 µM, first compound 3.16 µM",10.3%
same,"viability, T/C","second compound 0.316 µM, first compound 10 µM",10.5%
same,"viability, T/C",[9],36.4%
same,"viability, T/C",[10],29.3%
same,"viability, T/C","second compound 1 µM, first compound 0.316 µM",19.7%
same,"viability, T/C","second compound 1 µM, first compound 1 µM",16.9%
same,"viability, T/C","second compound 1 µM, first compound 3.16 µM",17.4%
same,"viability, T/C","second compound 1 µM, first compound 10 µM",15.6%
CC(C)n1nc(-c2ccc3oc(N)nc3c2)c2c(N)ncnc21 + CCN1CCN(Cc2ccc(Nc3ncc(F)c(-c4cc(F)c5nc(C)n(C(C)C)c5c4)n3)nc2)CC1,IC50,second compound 0.01 µM,1.65 nM
same,IC50,second compound 0.0316 µM,1.23 nM
same,IC50,second compound 0.1 µM,0.577 nM
same,IC50,second compound 0.316 µM,0.381 nM
same,IC50,second compound 1 µM,< 0.316 nM
same,"viability, T/C","second compound 0.01 µM, first compound 0.000316 µM",76.7%
same,"viability, T/C","second compound 0.01 µM, first compound 0.001 µM",59.3%
same,"viability, T/C","second compound 0.01 µM, first compound 0.00316 µM",37.8%
same,"viability, T/C","second compound 0.01 µM, first compound 0.01 µM",19%
same,"viability, T/C",[1],8.77%
same,"viability, T/C",[2],7.65%
same,"viability, T/C","second compound 0.0316 µM, first compound 0.000316 µM",64.4%
same,"viability, T/C","second compound 0.0316 µM, first compound 0.001 µM",54.8%
same,"viability, T/C","second compound 0.0316 µM, first compound 0.00316 µM",31.3%
same,"viability, T/C","second compound 0.0316 µM, first compound 0.01 µM",16.1%
same,"viability, T/C",[3],11.6%
same,"viability, T/C",[4],7.01%
same,"viability, T/C","second compound 0.1 µM, first compound 0.000316 µM",55.4%
same,"viability, T/C","second compound 0.1 µM, first compound 0.001 µM",45.4%
same,"viability, T/C","second compound 0.1 µM, first compound 0.00316 µM",28.1%
same,"viability, T/C","second compound 0.1 µM, first compound 0.01 µM",16%
same,"viability, T/C",[5],10.8%
same,"viability, T/C",[6],7.2%
same,"viability, T/C","second compound 0.316 µM, first compound 0.000316 µM",51.5%
same,"viability, T/C","second compound 0.316 µM, first compound 0.001 µM",41.4%
same,"viability, T/C","second compound 0.316 µM, first compound 0.00316 µM",26.2%
same,"viability, T/C","second compound 0.316 µM, first compound 0.01 µM",18.1%
same,"viability, T/C",[7],14.3%
same,"viability, T/C",[8],9.24%
same,"viability, T/C","second compound 1 µM, first compound 0.000316 µM",40.7%
same,"viability, T/C","second compound 1 µM, first compound 0.001 µM",34.2%
same,"viability, T/C","second compound 1 µM, first compound 0.00316 µM",27.9%
same,"viability, T/C","second compound 1 µM, first compound 0.01 µM",21.2%
same,"viability, T/C",[9],15.9%
same,"viability, T/C",[10],13.2%
Cn1cnc2c(F)c(Nc3ccc(Br)cc3Cl)c(C(=O)NOCCO)cc21 + CCN1CCN(Cc2ccc(Nc3ncc(F)c(-c4cc(F)c5nc(C)n(C(C)C)c5c4)n3)nc2)CC1,IC50,second compound 0.01 µM,1670 nM
same,IC50,second compound 0.0316 µM,1180 nM
same,IC50,second compound 0.1 µM,390 nM
same,IC50,second compound 0.316 µM,167 nM
same,IC50,second compound 1 µM,< 9.49 nM
same,"viability, T/C","second compound 0.01 µM, first compound 0.00949 µM",90.9%
same,"viability, T/C","second compound 0.01 µM, first compound 0.03 µM",95.4%
same,"viability, T/C","second compound 0.01 µM, first compound 0.0949 µM",98%
same,"viability, T/C","second compound 0.01 µM, first compound 0.3 µM",96%
same,"viability, T/C","second compound 0.01 µM, first compound 0.949 µM",65.5%
same,"viability, T/C","second compound 0.01 µM, first compound 3 µM",33.9%
same,"viability, T/C","second compound 0.0316 µM, first compound 0.00949 µM",80.6%
same,"viability, T/C","second compound 0.0316 µM, first compound 0.03 µM",79.5%
same,"viability, T/C","second compound 0.0316 µM, first compound 0.0949 µM",84.1%
same,"viability, T/C","second compound 0.0316 µM, first compound 0.3 µM",75.1%
same,"viability, T/C","second compound 0.0316 µM, first compound 0.949 µM",55.5%
same,"viability, T/C","second compound 0.0316 µM, first compound 3 µM",27.1%
same,"viability, T/C","second compound 0.1 µM, first compound 0.00949 µM",59.8%
same,"viability, T/C","second compound 0.1 µM, first compound 0.03 µM",59.1%
same,"viability, T/C","second compound 0.1 µM, first compound 0.0949 µM",66.8%
same,"viability, T/C","second compound 0.1 µM, first compound 0.3 µM",51.2%
same,"viability, T/C","second compound 0.1 µM, first compound 0.949 µM",38.6%
same,"viability, T/C","second compound 0.1 µM, first compound 3 µM",28.2%
same,"viability, T/C","second compound 0.316 µM, first compound 0.00949 µM",61.7%
same,"viability, T/C","second compound 0.316 µM, first compound 0.03 µM",63.7%
same,"viability, T/C","second compound 0.316 µM, first compound 0.0949 µM",49.1%
same,"viability, T/C","second compound 0.316 µM, first compound 0.3 µM",47.4%
same,"viability, T/C","second compound 0.316 µM, first compound 0.949 µM",38.8%
same,"viability, T/C","second compound 0.316 µM, first compound 3 µM",28.4%
same,"viability, T/C","second compound 1 µM, first compound 0.00949 µM",41.8%
same,"viability, T/C","second compound 1 µM, first compound 0.03 µM",50.6%
same,"viability, T/C","second compound 1 µM, first compound 0.0949 µM",50.8%
same,"viability, T/C","second compound 1 µM, first compound 0.3 µM",44.6%
same,"viability, T/C","second compound 1 µM, first compound 0.949 µM",35.9%
same,"viability, T/C","second compound 1 µM, first compound 3 µM",24.2%
